Starred links: 1 amine or outer side, 2 acyl side, 3 side chain; linkers in the order of their positions; H or OH if unused. Positions of bridges follow the written chain, without caps; N, C: chain ends. Non-standard residues stand in square brackets, D forms with d. Residues, ends and D or L forms follow the SMILES beside them. Groups on a side chain read outwards from the residue. *: point of attachment. Trp(1-CH2COOH) = N[C@@H](Cc1cn(CC(=O)O)c2ccccc12)C(=O)O; X73 = FC(F)(F)c1cc(NC(=S)*)cc(C(F)(F)F)c1; Hyp = O=C(O)[C@@H]1C[C@@H](O)CN1; X27 = Cc1cc([N+](=O)[O-])ccc1N*; X30 = FC(F)(F)c1ccc(N*)c(Cl)c1; NH(3-MeOPh) = COc1cccc(N*)c1; NMeNle = CCCC[C@H](NC)C(=O)O; NMeA = CN[C@@H](C)C(=O)O; Dab = NCC[C@H](N)C(=O)O; X39 = CCCCOc1ccc(N*)cc1; Dap = NC[C@H](N)C(=O)O; X17 = Cc1cc(C)cc(N*)c1; X46 = COc1ccc(Cl)cc1N*; X15 = Cc1ccc(Cl)cc1N*; CO = O=C([*:1])[*:2]

In the first test the target is T1, PD-1/PD-L1 (Homo sapiens, UniProt Q9NZQ7).
T1 construct: TVMV protease site linker (C); made in house; host or cells: HEK293T cells
T1 sequence (Q9NZQ7 18-239): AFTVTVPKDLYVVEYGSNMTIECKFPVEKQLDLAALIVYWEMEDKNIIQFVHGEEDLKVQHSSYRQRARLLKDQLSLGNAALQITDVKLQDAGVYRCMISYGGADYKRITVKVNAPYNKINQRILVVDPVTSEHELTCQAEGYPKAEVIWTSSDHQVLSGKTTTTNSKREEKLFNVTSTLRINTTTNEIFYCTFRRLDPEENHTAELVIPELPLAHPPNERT
Briefly: PD-1/PD-L1 Homogenous Time-Resolved Fluorescence (HTRF) binding assay.
Settings: not given
A digest of the protocol:
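Compounds preincubated 15 min with PD-L1-His (10 nM final), then PD-1-Ig (20 nM final) added for 15 min in dPBS with 0.1% BSA, 0.05% Tween-20. Detection by Eu-cryptate anti-Ig (1 nM) and APC anti-His (20 nM) HTRF.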
The compound `CCCC[C@H]1C(=O)N(C)[C@@H](CCCC)C(=O)N[C@@H](CC(C)C)C(=O)N[C@H](C(=O)NCC(N)=O)CSCC(=O)N[C@@H](Cc2ccc(O)cc2)C(=O)N(C)[C@@H](C)C(=O)N[C@@H](CC(N)=O)C(=O)N2CCC[C@H]2C(=O)N[C@@H](CNC(=O)Nc2ccc([N+](=O)[O-])cc2C)C(=O)N[C@@H](CC(C)C)C(=O)N2C[C@H](O)C[C@H]2C(=O)N[C@@H](Cc2c[nH]c3ccccc23)C(=O)N[C@@H](CCNC(=O)Nc2ccc([N+](=O)[O-])cc2C)C(=O)N[C@@H](Cc2cn(CC(=O)O)c3ccccc23)C(=O)N1C` [Example 1122] ({CH2CO}-Y[NMeA]NP[Dap]([CO-X27])L[Hyp]W[Dab]([CO-X27])[Trp(1-CH2COOH)][NMeNle][NMeNle]LCG-NH2; thioether N-14) returned a concentration for half-maximal inhibition (IC50) of 14 nM.

The test is the same for the next values; noted with them: PD-L1-His 10 nM pre-incubated with inhibitor, PD-1-Ig 20 nM; read-out: HTRF IC50.
Take `CCCC[C@H]1C(=O)N(C)[C@@H](CCCC)C(=O)N[C@@H](CC(C)C)C(=O)N[C@H](C(=O)NCC(N)=O)CSCC(=O)N[C@@H](Cc2ccc(O)cc2)C(=O)N(C)[C@@H](C)C(=O)N[C@@H](CC(N)=O)C(=O)N2CCC[C@H]2C(=O)N[C@@H](CNC(=O)Nc2ccc(C(F)(F)F)cc2Cl)C(=O)N[C@@H](CC(C)C)C(=O)N2C[C@H](O)C[C@H]2C(=O)N[C@@H](Cc2c[nH]c3ccccc23)C(=O)N[C@@H](CCNC(=O)Nc2ccc(C(F)(F)F)cc2Cl)C(=O)N[C@@H](Cc2cn(CC(=O)O)c3ccccc23)C(=O)N1C` [Example 1116] ({CH2CO}-Y[NMeA]NP[Dap]([CO-X30])L[Hyp]W[Dab]([CO-X30])[Trp(1-CH2COOH)][NMeNle][NMeNle]LCG-NH2; thioether N-14): the IC50 was 18 nM.

As for `CCCC[C@H]1C(=O)N(C)[C@@H](CCCC)C(=O)N[C@@H](CC(C)C)C(=O)N[C@H](C(=O)NCC(N)=O)CSCC(=O)N[C@@H](Cc2ccc(O)cc2)C(=O)N(C)[C@@H](C)C(=O)N[C@@H](CC(N)=O)C(=O)N2CCC[C@H]2C(=O)N[C@@H](CN)C(=O)N[C@@H](CC(C)C)C(=O)N2C[C@H](O)C[C@H]2C(=O)N[C@@H](Cc2c[nH]c3ccccc23)C(=O)N[C@@H](CCNC(=O)Nc2cc(Cl)ccc2C)C(=O)N[C@@H](Cc2cn(CC(=O)O)c3ccccc23)C(=O)N1C` [Example 1117] ({CH2CO}-Y[NMeA]NP[Dap]L[Hyp]W[Dab]([CO-X15])[Trp(1-CH2COOH)][NMeNle][NMeNle]LCG-NH2; thioether N-14), the concentration for half-maximal inhibition (IC50) stood at 4.7 nM.

Take `CCCC[C@H]1C(=O)N(C)[C@@H](CCCC)C(=O)N[C@@H](CC(C)C)C(=O)N[C@H](C(=O)NCC(N)=O)CSCC(=O)N[C@@H](Cc2ccc(O)cc2)C(=O)N(C)[C@@H](C)C(=O)N[C@@H](CC(N)=O)C(=O)N2CCC[C@H]2C(=O)N[C@@H](CNC(=O)Nc2cc(Cl)ccc2C)C(=O)N[C@@H](CC(C)C)C(=O)N2C[C@H](O)C[C@H]2C(=O)N[C@@H](Cc2c[nH]c3ccccc23)C(=O)N[C@@H](CCNC(=O)Nc2cc(Cl)ccc2C)C(=O)N[C@@H](Cc2cn(CC(=O)O)c3ccccc23)C(=O)N1C` [Example 1118] ({CH2CO}-Y[NMeA]NP[Dap]([CO-X15])L[Hyp]W[Dab]([CO-X15])[Trp(1-CH2COOH)][NMeNle][NMeNle]LCG-NH2; thioether N-14): the half-inhibitory concentration (IC50) turned out to be 4.3 nM.

In the case of `CCCCOc1ccc(NC(=O)NCC[C@@H]2NC(=O)[C@H](Cc3c[nH]c4ccccc34)NC(=O)[C@@H]3C[C@@H](O)CN3C(=O)[C@H](CC(C)C)NC(=O)[C@H](CN)NC(=O)[C@@H]3CCCN3C(=O)[C@H](CC(N)=O)NC(=O)[C@H](C)N(C)C(=O)[C@H](Cc3ccc(O)cc3)NC(=O)CSC[C@@H](C(=O)NCC(N)=O)NC(=O)[C@H](CC(C)C)NC(=O)[C@H](CCCC)N(C)C(=O)[C@H](CCCC)N(C)C(=O)[C@H](Cc3cn(CC(=O)O)c4ccccc34)NC2=O)cc1` [Example 1119] ({CH2CO}-Y[NMeA]NP[Dap]L[Hyp]W[Dab]([CO-X39])[Trp(1-CH2COOH)][NMeNle][NMeNle]LCG-NH2; thioether N-14), the IC50 was 3.4 nM.

With `CCCCOc1ccc(NC(=O)NCC[C@@H]2NC(=O)[C@H](Cc3c[nH]c4ccccc34)NC(=O)[C@@H]3C[C@@H](O)CN3C(=O)[C@H](CC(C)C)NC(=O)[C@H](CNC(=O)Nc3ccc(OCCCC)cc3)NC(=O)[C@@H]3CCCN3C(=O)[C@H](CC(N)=O)NC(=O)[C@H](C)N(C)C(=O)[C@H](Cc3ccc(O)cc3)NC(=O)CSC[C@@H](C(=O)NCC(N)=O)NC(=O)[C@H](CC(C)C)NC(=O)[C@H](CCCC)N(C)C(=O)[C@H](CCCC)N(C)C(=O)[C@H](Cc3cn(CC(=O)O)c4ccccc34)NC2=O)cc1` [Example 1120] ({CH2CO}-Y[NMeA]NP[Dap]([CO-X39])L[Hyp]W[Dab]([CO-X39])[Trp(1-CH2COOH)][NMeNle][NMeNle]LCG-NH2; thioether N-14), the half-inhibitory concentration (IC50) amounted to 8.5 nM.

Consider `CCCC[C@H]1C(=O)N(C)[C@@H](CCCC)C(=O)N[C@@H](CC(C)C)C(=O)N[C@H](C(=O)NCC(N)=O)CSCC(=O)N[C@@H](Cc2ccc(O)cc2)C(=O)N(C)[C@@H](C)C(=O)N[C@@H](CC(N)=O)C(=O)N2CCC[C@H]2C(=O)N[C@@H](CNC(=O)Nc2cc(C)cc(C)c2)C(=O)N[C@@H](CC(C)C)C(=O)N2C[C@H](O)C[C@H]2C(=O)N[C@@H](Cc2c[nH]c3ccccc23)C(=O)N[C@@H](CCNC(=O)Nc2cccc(OC)c2)C(=O)N[C@@H](Cc2cn(CC(=O)O)c3ccccc23)C(=O)N1C` [Example 1121] ({CH2CO}-Y[NMeA]NP[Dap]([CO-X17])L[Hyp]W[Dab]([CO-NH(3-MeOPh)])[Trp(1-CH2COOH)][NMeNle][NMeNle]LCG-NH2; thioether N-14), for which the IC50 is 14 nM.

As to `CCCC[C@H]1C(=O)N(C)[C@@H](CCCC)C(=O)N[C@@H](CC(C)C)C(=O)N[C@H](C(=O)NCC(N)=O)CSCC(=O)N[C@@H](Cc2ccc(O)cc2)C(=O)N(C)[C@@H](C)C(=O)N[C@@H](CC(N)=O)C(=O)N2CCC[C@H]2C(=O)N[C@@H](CNC(=O)Nc2cc(Cl)ccc2OC)C(=O)N[C@@H](CC(C)C)C(=O)N2C[C@H](O)C[C@H]2C(=O)N[C@@H](Cc2c[nH]c3ccccc23)C(=O)N[C@@H](CCNC(=O)Nc2cc(Cl)ccc2OC)C(=O)N[C@@H](Cc2cn(CC(=O)O)c3ccccc23)C(=O)N1C` [Example 1123] ({CH2CO}-Y[NMeA]NP[Dap]([CO-X46])L[Hyp]W[Dab]([CO-X46])[Trp(1-CH2COOH)][NMeNle][NMeNle]LCG-NH2; thioether N-14), the IC50 was determined as 4.4 nM.

For the compound `CCCC[C@H]1C(=O)N(C)[C@@H](CCCC)C(=O)N[C@@H](CC(C)C)C(=O)N[C@H](C(=O)NCC(N)=O)CSCC(=O)N[C@@H](Cc2ccc(O)cc2)C(=O)N(C)[C@@H](C)C(=O)N[C@@H](CC(N)=O)C(=O)N2CCC[C@H]2C(=O)N[C@@H](CNC(=S)Nc2cc(C(F)(F)F)cc(C(F)(F)F)c2)C(=O)N[C@@H](CC(C)C)C(=O)N2C[C@H](O)C[C@H]2C(=O)N[C@@H](Cc2c[nH]c3ccccc23)C(=O)N[C@@H](CCNC(=S)Nc2cc(C(F)(F)F)cc(C(F)(F)F)c2)C(=O)N[C@@H](Cc2cn(CC(=O)O)c3ccccc23)C(=O)N1C` [Example 1124] ({CH2CO}-Y[NMeA]NP[Dap](X73)L[Hyp]W[Dab](X73)[Trp(1-CH2COOH)][NMeNle][NMeNle]LCG-NH2; thioether N-14), the half-inhibitory concentration (IC50) turned out to be 87 nM.

The record behind these values is patent US20220389061A1, “IMMUNOMODULATORS” (priority 2019, published 2022).
